25 compounds from ChEMBL document CHEMBL1125213 (J Med Chem, 1991) can be followed below.

The target in data set [1] is T1, Adenosine A2 receptor (Rattus norvegicus, UniProt P29276+P30543). As to the kind of experiment: Binding affinity against adenosine A2 receptor in rat striatum by using [3H]NECA as a radioligand. The data set is classed as tissue-based.
Data set [2] deals with T1, Adenosine A2 receptor. In words: Tested for inhibition of rat PC12 adenylate cyclase stimulation by using NECA as a radioligand. In kind it is cell-based. Particulars: pc-12.
In data set [3] the target is Adenosine receptors; A1 & A2 (Rattus norvegicus) (UniProt P29276+P25099+P30543). In words: It is the ratio of Ki value of A1 receptor to that of A2 receptor. The data set is classed as protein assay.
The target of data set [4] is T2, Adenosine receptor A1 (Rattus norvegicus, UniProt P25099).
T2 sequence (P25099 whole entry): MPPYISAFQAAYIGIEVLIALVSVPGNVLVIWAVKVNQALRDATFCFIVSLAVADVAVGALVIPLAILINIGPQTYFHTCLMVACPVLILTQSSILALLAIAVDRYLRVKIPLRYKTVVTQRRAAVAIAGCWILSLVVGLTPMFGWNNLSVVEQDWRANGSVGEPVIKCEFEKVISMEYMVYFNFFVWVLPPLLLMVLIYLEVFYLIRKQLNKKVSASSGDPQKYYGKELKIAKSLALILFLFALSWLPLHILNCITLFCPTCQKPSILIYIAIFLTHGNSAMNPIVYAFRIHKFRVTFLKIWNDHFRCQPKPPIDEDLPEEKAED
In words: Binding affinity against adenosine A1 receptor in rat cortex by using [3H]- PIA as a radioligand. The data set is classed as tissue-based.

Data set [5] in a line: Hydrophobicity index. The data set is classed as ADME.
The target of data set [6] is T3, Adenosine receptor A1 (Rattus norvegicus) (UniProt P25099).
T3 sequence (whole entry): T2 sequence (P25099 whole entry)
Particulars: 100 uM.
Description: Inhibition of [3H]PIA binding to adenosine A1 receptor of rat cortex at 100 uM

For the compound `CC[C@H](Nc1ncnc2c1ncn2-c1ccccc1)c1ccccc1`, the Ki (commonly a dissociation constant, usually derived from enzyme kinetics or from competition with a known ligand) in data set [1] stood at 18 µM; in data set [2] it was 9.9 µM; in data set [4], 7.2 µM. For the same compound, in data set [3], the Selectivity ratio stood at 2.5.

`c1nc(NC2CCCC2)c2ncn(C3CCCO3)c2n1` (stereo not given): the Ki came to 39 µM in data set [1], 30 µM in data set [2] and 1.7 µM in data set [4]. In addition, in data set [3], the Selectivity ratio worked out at 23. For the same compound, in data set [5], the “k'” value is 1.81.

In the case of `Cn1cnc2c(NC3CCCC3)ncnc21`, the Ki in data set [1] stood at 11 µM; in data set [2], 25 µM. In data set [3], the Selectivity ratio came to 26. Further, in data set [5], the “k'” value was found to be 1.29.

On to `Nc1ncnc2c1ncn2CCO`, for which the Ki in data set [1] was 46 µM; in data set [2], 12 µM; in data set [4] it was greater than 100 µM. Also, the Selectivity ratio in data set [3] is less than 0.5. Further, the “k'” value in data set [5] came out at 0.04. In addition, the Inhibition (in general, the share of the control response that was lost under treatment) in data set [6] is 30%.

Consider `CC[C@@H](Nc1nc(Cl)nc2c1ncn2C)c1ccccc1`, for which the Ki in data set [1] came out at 6.8 µM; in data set [2] it was 4.3 µM; in data set [4], 3.3 µM. Besides, the Selectivity ratio in data set [3] amounted to 2.1.

`Cn1cnc2c(N)ncnc21`: the Ki in data set [1] was 15 µM; in data set [2] it was 24 µM; in data set [4] it was 69 µM. Also, in data set [3], the Selectivity ratio is 0.22. The “k'” value in data set [5] is listed as 0.11.

Regarding `CCn1cnc2c(NC3CCCC3)ncnc21`, the Ki in data set [1] came out at 17 µM; in data set [2], 10.3 µM. Also, in data set [3], the Selectivity ratio stood at 39. Also, the “k'” value in data set [5] is 1.66.

Take `Cn1cnc2c(NC3CCCCC3)ncnc21`: the results for the Ki in data set [1] and in data set [2] were 13 µM and 21 µM, respectively. Further, in data set [3], the Selectivity ratio turned out to be 14.

Regarding `CC[C@@H](Nc1ncnc2c1ncn2-c1ccccc1)c1ccccc1`, the Ki came to 15 µM in data set [1], 11 µM in data set [2] and 4.7 µM in data set [4]. For the same compound, the Selectivity ratio in data set [3] came out at 3.2.

For `c1nc(NC2CCCC2)c2ncn(C3CCCC3)c2n1`, the Ki is 19 µM in data set [1], 5.1 µM in data set [2] and 1.2 µM in data set [4]. The Selectivity ratio in data set [3] amounted to 16. In data set [5], the “k'” value was found to be 4.99.

For `c1ccc(Nc2ncnc3c2ncn3-c2ccccc2)cc1`, the figures for the inhibition constant Ki in data set [1], in data set [2] and in data set [4] were 111 µM, 50 µM and 6.9 µM, respectively. For the same compound, the Selectivity ratio in data set [3] turned out to be 16.

As to `Nc1ncnc2c1ncn2C1CCCC1`, the Ki worked out at 8.2 µM in data set [1], 3.4 µM in data set [2] and 1.8 µM in data set [4]. The Selectivity ratio in data set [3] is 4.6. Also, in data set [5], the “k'” value worked out at 1.94.

In the case of `CC[C@H](Nc1ncnc2c1ncn2C)c1ccccc1.Cl`, the inhibition constant (Ki) in data set [1] was determined as 84 µM; in data set [2] it was 74 µM; in data set [4] it was 11 µM. Further, the Selectivity ratio in data set [3] is 7.6.

With `Cn1cnc2c(N)nc(Cl)nc21`, the Ki in data set [1] was 11 µM; in data set [2] it was 16 µM; in data set [4] it was 23 µM. In data set [3], the Selectivity ratio worked out at 0.48. In addition, in data set [5], the “k'” value is 0.22.

As for `Nc1ncnc2c1ncn2-c1ccccc1`, the Ki is 38 µM in data set [1], 74 µM in data set [2] and 19 µM in data set [4]. In addition, in data set [3], the Selectivity ratio came to 2. Moreover, the “k'” value in data set [5] is 0.56.

Regarding `Cn1cnc2c(Nc3ccccc3)nc(Cl)nc21`, the Ki in data set [1] was 31 µM; in data set [2], 21 µM; in data set [4] it was 7 µM. In data set [3], the Selectivity ratio is 4.4.

Take `CCn1cnc2c(N)ncnc21`: the Ki in data set [1] amounted to 8.8 µM; in data set [2], 5.6 µM. For the same compound, the Selectivity ratio in data set [3] turned out to be 0.19. Moreover, in data set [5], the “k'” value is given as 0.39.

Take `Cn1cnc2c(NC3CCCC3)nc(Cl)nc21`: the figures for the Ki in data set [1], in data set [2] and in data set [4] were 9.3 µM, 6.3 µM and 0.53 µM, respectively. In addition, the Selectivity ratio in data set [3] was 18. Further, the “k'” value in data set [5] is recorded as 3.37.

For `CC[C@@H](Nc1ncnc2c1ncn2C)c1ccccc1.Cl`, the inhibition constant Ki amounted to 55 µM in data set [1], 25 µM in data set [2] and 2.5 µM in data set [4]. The Selectivity ratio in data set [3] stood at 22.

Turning to `CC[C@H](Nc1nc(Cl)nc2c1ncn2C)c1ccccc1`, the Ki was determined as 12 µM in data set [1], 17 µM in data set [2] and 2.8 µM in data set [4]. In addition, in data set [3], the Selectivity ratio was 4.3.

On to `Cn1cnc2c(Nc3ccccc3)ncnc21`, for which the Ki in data set [1] came out at 68 µM; in data set [2], 107 µM; in data set [4], 6.9 µM. The Selectivity ratio in data set [3] amounted to 9.9.

Consider `c1ccc(-n2cnc3c(NC4CCCC4)ncnc32)cc1`, for which the inhibitory constant (Ki) in data set [1] was 79 µM; in data set [2] it was 47 µM; in data set [4], 8.7 µM. Further, in data set [3], the Selectivity ratio stood at 9.1. Moreover, in data set [5], the “k'” value is 3.91.

Take `OCCn1cnc2c(NC3CCCC3)ncnc21`: the Ki turned out to be 47 µM in data set [1], 27 µM in data set [2] and 3.3 µM in data set [4]. For the same compound, the Selectivity ratio in data set [3] was found to be 14. Moreover, the “k'” value in data set [5] is recorded as 0.68.

As for `Nc1ncnc2c1ncn2C1CCCO1` (stereo not given), the values for the Ki in data set [1] and in data set [2] were 23 µM and 2.4 µM, respectively. Further, in data set [3], the Selectivity ratio was 0.82. In addition, the “k'” value in data set [5] came to 0.21.

Take `CCn1cnc2c(NC3CCCCC3)ncnc21`: the inhibition constant Ki in data set [1] turned out to be 11 µM; in data set [2] it was 8.5 µM; in data set [4], 2 µM. Besides, the Selectivity ratio in data set [3] turned out to be 5.5.
